This is an account of results in patent US9434993B2, “Systems for identifying cosmetic agents for skin care compositions” (The Procter & Gamble Company, priority 2011, dated 2016).

“Also recorded” adds a separate entry of the source.

For one test, the system named is BJ fibroblasts. Nature of the test: Microscopic evaluation of cell morphology, BJ fibroblasts. The format is cell-based, human. The note with it: 10 μM in DMSO for 6 hr; vs 0.1% DMSO vehicle control. As to the method: (§1) All cells were incubated at 37° C. in a humidified incubator with 5% CO2. At t=−24 hours cells were trypsinized from T-75 flasks and plated into 6-well plates in basal growth medium. At t=0 media was removed and replaced with the appropriate dosing solution as per the experimental design. Dosing solutions were prepared the previous day in sterile 4 ml Falcon snap cap tubes. Pure test materials may be prepared at a concentration of 1-200 μM, and botanical extracts may be prepared at a concentration of 0.001 to 1% by weight of the dosing solution. After 6 to 24 hours of chemical exposure, cells were viewed and imaged. The wells were examined with a microscope before cell lysis and RNA isolation to evaluate for morphologic evidence of toxicity. […] Cells were then lysed with 350 ul/well of RLT buffer containing β-mercaptoethanol (Qiagen, Valencia, Calif.), transferred to a 96-well plate, and stored at −20° C.

The test system of test [1] is Telomerized-keratinocytes. Nature of the test: Microscopic evaluation of cell morphology, telomerized keratinocytes. The note with it: 10 μM in DMSO for 6 hr; vs 0.1% DMSO vehicle control. The format is cell-based, human. As for the experimental part: as §1

Regarding `CC1=C(/C=C/C(C)=C/C=C/C(C)=C/C(=O)O)C(C)(C)CCC1` [tRA, all-trans-retinoic acid], the “morphology of treated fibroblasts” value in the test with BJ fibroblasts is recorded as “no apparent morphologic effect”. The “morphology of treated keratinocytes” value in test [1] is “marked morphologic changes; also recorded: dramatic morphologic changes”.
